Data as given in ChEMBL document CHEMBL4270559, “Structural insight into the optimization of ethyl 5-hydroxybenzo[g]indol-3-carboxylates and their bioisosteric analogues as 5-LO/m-PGES-1 dual inhibitors able to suppress inflammation” (Eur J Med Chem, 2018).
pIC50: −log10 of the molar value.

How the values were obtained:
[1] = molecular target: T1, Polyunsaturated fatty acid 5-lipoxygenase (Homo sapiens, UniProt P09917); test: Inhibition of 5-LO in human peripheral blood neutrophils using arachidonic acid as substrate preincubated for 15 mins followed by substrate addition measured after 10 mins by RP-HPLC analysis
T1 sequence (P09917 whole entry): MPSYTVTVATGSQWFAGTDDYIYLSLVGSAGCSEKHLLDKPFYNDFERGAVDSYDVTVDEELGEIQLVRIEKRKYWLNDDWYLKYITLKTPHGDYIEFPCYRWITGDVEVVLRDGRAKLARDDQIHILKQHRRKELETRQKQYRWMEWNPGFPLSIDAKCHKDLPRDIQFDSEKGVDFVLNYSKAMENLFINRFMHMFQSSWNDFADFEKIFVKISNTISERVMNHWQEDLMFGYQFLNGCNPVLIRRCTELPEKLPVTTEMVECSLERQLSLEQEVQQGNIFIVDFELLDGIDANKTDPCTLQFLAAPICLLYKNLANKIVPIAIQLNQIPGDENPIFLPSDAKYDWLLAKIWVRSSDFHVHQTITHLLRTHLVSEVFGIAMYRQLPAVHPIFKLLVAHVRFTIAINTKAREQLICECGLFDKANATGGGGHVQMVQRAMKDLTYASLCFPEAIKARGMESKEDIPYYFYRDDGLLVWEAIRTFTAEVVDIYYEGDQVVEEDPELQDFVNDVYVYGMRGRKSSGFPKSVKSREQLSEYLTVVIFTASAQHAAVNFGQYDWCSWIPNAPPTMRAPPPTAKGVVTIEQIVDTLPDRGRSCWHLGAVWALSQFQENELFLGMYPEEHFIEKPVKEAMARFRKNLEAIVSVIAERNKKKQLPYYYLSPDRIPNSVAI

Mus musculus [2] = test: Anti-inflammatory activity in carrageenan-induced ICR mouse model of inflammation assessed as reduction in paw edema at 4 mg/kg, ip administered 30 mins prior to carrageenan challenge measured at 4 hrs post carrageenan challenge by plethysmometric method relative to control; type: functional; parameters: scale not given: the % may be the effect or the level left
[3] = molecular target: T1, Polyunsaturated fatty acid 5-lipoxygenase; test: Inhibition of recombinant human 5-LO expressed in Escherichia coli BL21 using arachidonic acid as substrate preincubated for 15 mins followed by substrate addition measured after 10 mins by RP-HPLC analysis
Prostaglandin E synthase = molecular target: T2, Prostaglandin E synthase (Homo sapiens, UniProt O14684); test: Inhibition of mPGES-1 in microsomal membranes isolated from IL-1beta-stimulated human A549 cells preincubated for 15 mins followed by PGH2 addition measured after 1 mins by RP-HPLC analysis; type: cell membranes
T2 sequence (O14684 whole entry): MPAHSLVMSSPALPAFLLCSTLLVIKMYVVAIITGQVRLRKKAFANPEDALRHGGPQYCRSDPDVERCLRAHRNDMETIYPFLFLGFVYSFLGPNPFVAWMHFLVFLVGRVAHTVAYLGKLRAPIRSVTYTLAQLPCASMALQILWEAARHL

Mus musculus [4] = test: Anti-inflammatory activity in carrageenan-induced ICR mouse model of inflammation assessed as reduction in paw edema at 4 mg/kg, ip administered 30 mins prior to carrageenan challenge measured at 2 to 6 hrs post carrageenan challenge by plethysmometric method relative to control; type: functional; parameters: scale not given: the % may be the effect or the level left
[5] = molecular target: T3, Prostaglandin E synthase (Homo sapiens) (UniProt O14684); test: Inhibition of mPGES-1 in microsomal membranes isolated from IL-1beta-stimulated human A549 cells assessed as residual activity preincubated for 15 mins followed by PGH2 addition measured after 1 mins by RP-HPLC analysis relative to control; type: cell membranes
T3 sequence (whole entry): T2 sequence (O14684 whole entry)

Mus musculus [6] = test: Anti-inflammatory activity in carrageenan-induced ICR mouse model of inflammation assessed as reduction in paw edema at 20 mg/kg, ip administered 30 mins prior to carrageenan challenge measured at 2 to 6 hrs post carrageenan challenge by plethysmometric method relative to control; type: functional; parameters: scale not given: the % may be the effect or the level left

| Compound | pIC50 [1] | pIC50 [3] | pIC50 (Prostaglandin E synthase) | Activity [5] [%] | Activity (Mus musculus [2]) [%] | Activity (Mus musculus [4]) [%] | Activity (Mus musculus [6]) [%] |
| --- | --- | --- | --- | --- | --- | --- | --- |
| CCOC(=O)c1c(-c2cc(Br)ccc2F)oc2c1cc(O)c1ccccc12 | 5.35 | 5.69 |  |  |  |  |  |
| CCOC(=O)c1c(-c2ccc(Cl)cc2)oc2c1cc(O)c1ccccc12 | 5.43 | 6.89 |  |  |  |  |  |
| CCOC(=O)c1c(-c2ccccc2Cl)oc2c1cc(O)c1ccccc12 | 5.73 | 6.43 |  |  |  |  |  |
| CCOC(=O)c1c(Cc2c(C)cc(C)cc2C)[nH]c2c1cc(O)c1ccccc12 | 6.89 | 6.53 | 4.23 |  |  |  |  |
| CCOC(=O)c1c(-c2ccccc2OC)oc2c1cc(O)c1ccccc12 | 5.87 | 6.66 |  |  |  |  |  |
| CCOC(=O)c1c(-c2cccc(Br)c2)oc2c1cc(O)c1ccccc12 | 5.79 | 6.07 |  |  |  |  |  |
| CCOC(=O)c1c(Cc2c(F)cccc2F)[nH]c2c1cc(O)c1ccccc12 | 7.03 | 6.77 | 5.38 |  |  | 81 |  |
| CCOC(=O)c1c(-c2ccc(Br)cc2F)oc2c1cc(O)c1ccccc12 | 5.63 | 5.97 |  |  |  |  |  |
| CCOC(=O)c1c(-c2ccccc2OC)[nH]c2c1cc(O)c1ccccc12 | 6.68 | 6.72 | 5.07 |  |  |  |  |
| CCOC(=O)c1c(-c2ccccc2F)oc2c1cc(O)c1ccccc12 | 6.17 | 6.43 |  |  |  |  |  |
| CCOC(=O)c1c(C)[nH]c2c1cc(O)c1ccccc12 | 6.38 | 6.32 |  |  |  |  |  |
| CCOC(=O)c1c(-c2cccc(Cl)c2)oc2c1cc(O)c1ccccc12 | 5.41 | 6.34 |  |  |  |  |  |
| CC(c1cc2ccccc2s1)N(O)C(N)=O (centres undefined) [ZILEUTON] |  |  |  |  |  |  | 38.2 |
| CCOC(=O)c1c(-c2ccccc2Br)oc2c1cc(O)c1ccccc12 | 6.10 | 6.80 |  |  |  |  |  |

Continued, in another order:

| pIC50 [1] | pIC50 [3] | pIC50 (Prostaglandin E synthase) | Activity [5] [%] | Compound | Activity (Mus musculus [2]) [%] | Activity (Mus musculus [4]) [%] | Activity (Mus musculus [6]) [%] |
| --- | --- | --- | --- | --- | --- | --- | --- |
| 6.64 | 6.96 | 5.67 |  | CCOC(=O)c1c(-c2cc(Br)ccc2F)[nH]c2c1cc(O)c1ccccc12 | 73.95 |  |  |
| 6.52 | 6.92 | 5.15 |  | CCOC(=O)c1c(-c2cc(C)cc(C)c2)[nH]c2c1cc(O)c1ccccc12 |  |  |  |
| 6.62 | 6.89 |  |  | CCOC(=O)c1c(-c2ccccc2Cl)[nH]c2c1cc(O)c1ccccc12 |  |  |  |
|  |  | 5.47 |  | CCOC(=O)c1c(-c2ccc(Cl)cc2)[nH]c2c1cc(O)c1ccccc12 |  |  |  |
| 6.68 | 6.89 | 5.92 |  | CCOC(=O)c1c(-c2cccc(Br)c2)[nH]c2c1cc(O)c1ccccc12 |  |  |  |
| 6.70 | 6.80 | 5.60 |  | CCOC(=O)c1c(-c2ccccc2Br)[nH]c2c1cc(O)c1ccccc12 |  |  |  |
| 5.91 | 5.77 |  |  | CCOC(=O)c1c(-c2ccc(Cl)c(Cl)c2)oc2c1cc(O)c1ccccc12 |  |  |  |
| 6.07 | 6.57 | 5.46 |  | CCOC(=O)c1c(-c2ccc(Br)cc2F)[nH]c2c1cc(O)c1ccccc12 | 69.35 |  |  |
| 6.38 | 6.96 | 4.90 |  | CCOC(=O)c1c(-c2ccccc2C)[nH]c2c1cc(O)c1ccccc12 |  |  |  |
| 6.89 | 6.89 | 6.32 |  | CCOC(=O)c1c(-c2ccc(Cl)c(Cl)c2)[nH]c2c1cc(O)c1ccccc12 | 47.3 |  |  |
| 7.35 | 7.27 | 5.38 |  | CCOC(=O)c1c(Cc2ccc(Cl)c(Cl)c2)[nH]c2c1cc(O)c1ccccc12 |  | 73 |  |
| 6.82 | 7.00 |  | 50.6 | CCOC(=O)c1c(-c2ccccc2F)[nH]c2c1cc(O)c1ccccc12 |  |  |  |
|  |  | 6.02 |  | CCOC(=O)c1c(Cc2ccccc2Cl)[nH]c2c1cc(O)c1ccccc12 |  |  |  |
| 6.92 | 6.85 | 5.59 |  | CCOC(=O)c1c(-c2cccc(C)c2)[nH]c2c1cc(O)c1ccccc12 |  |  |  |
| 5.94 | 6.11 |  | 78.1 | CCOC(=O)c1c(Cc2c(Cl)cccc2Cl)[nH]c2c1cc(O)c1ccccc12 |  |  |  |
